Assays:
rabbit aortic rings = experiment: Assay B: In Vitro Vascular Smooth Muscle Response for AII; assay type: cell-based; details: antagonist at 10^-5 M, two values per cell = aorta rings from two rabbits
Procedure: Assay B: In Vitro Vascular Smooth Muscle-Response for ATT
Compounds of Formula I were tested for antagonist activity in rabbit aortic rings. Male New Zealand white rabbits (2–2.5 kg) were sacrificed using an overdose of pentobarbital and exsanguinated via the carotid arteries. The thoracic aorta was removed, cleaned of adherent fat and connective tissue and then cut into 3-mm ring segments. The endothelium was removed from the rings by gently sliding a rolled-up piece of filter paper into the vessel lumen. The rings were then mounted in a water-jacketed tissue bath, maintained at 37° C., between moveable and fixed ends of a stainless steel wire with the moveable end attached to an FT03 Grass transducer coupled to a Model 7D Grass Polygraph for recording isometric force responses. The bath was filled with 20 ml of oxygenated (95% oxygen/5% carbon dioxide) Krebs solution of the following composition […]: 130 NaCl, 15 NaHCO3, 15 KCl, 1.2 NaH2PO4, 1.2 MgSO4, 2.5 CaCl2, and 11.4 glucose. The preparations were equilibrated for one hour before approximately one gram of passive tension was placed on the rings. Angiotensin II concentration-response curves were then recorded (3×10^−10 to 1×10–5 M). Each concentration of AII was allowed to elicit its maximal contraction, and then AII was washed out repeatedly for 30 minutes before rechallenging with a higher concentration of AII. Aorta rings were exposed to the test antagonist at 10^−5 M for 5 minutes before challenging with AII. Adjacent segments of the same aorta ring were used for all concentration-response curves in the presence or absence of the test antagonist. The effectiveness of the test compound was expressed in terms of pA2 values and were calculated according to H. O. Schild [Br. J. Pharmacol. Chemother., 2, 189–206 (1947)]. […] Each test antagonist was evaluated in aorta rings from two rabbits.

[1] = target: T1, smooth muscle angiotensin II receptor; experiment: Assay A: Angiotensin II Binding Activity; details: rat uterine membrane preparation, displacement of 125I-AII
T1 construct: Rat uterine membranes were prepared from fresh tissue
Procedure: Assay A: Angiotensin II Binding Activity
Compounds of Formula I were tested for ability to bind to the smooth muscle angiotensin II receptor using a rat uterine membrane preparation. […] Other chemicals were obtained from Sigma Chemical Co. This assay was carried out according to the method of Douglas et al [Endocrinology, 106, 120–124 (1980)]. Rat uterine membranes were prepared from fresh tissue. All procedures were carried out at 4° C. Uteri were stripped of fat and homogenized in phosphate-buffered saline at pH 7.4 containing 5 mM EDTA. The homogenate was centrifuged at 1500×g for 20 min., and the supernatant was recentrifuged at 100,000×g for 60 min. The pellet was resuspended in buffer consisting of 2 mM EDTA and 50 mM Tris-HCl (pH 7.5) to a final protein concentration of 4 mg/ml. […] The reaction was initiated by the addition of membrane protein and the mixture was incubated at 25° C. for 60 min. The incubation was terminated with ice-cold 50 mM Tris-HCl (pH 7.5) and the mixture was filtered to separate membrane-bound labelled peptide from the free ligand. The incubation tube and filter were washed with ice-cold buffer. Filters were assayed for radioactivity in a Micromedic gamma counter. Nonspecific binding was defined as binding in the presence of 10 μM of unlabelled AII. Specific binding was calculated as total binding minus nonspecific binding. […] Binding data were analyzed by a nonlinear least-squares curve fitting program.

[2] = target: T2, non-renal, vascular angiotensin II receptors (Rattus norvegicus, UniProt P25095); experiment: Assay D: AII pressor response during conjugate infusion (systemic AII antagonism); assay type: in vivo; details: SHR; for AII Pressor Response: 10 mg/hr infusion, AII bolus 100 ng/kg, control day 31 ± 4
T2 construct: from tissue; host or cells: whole animal: spontaneously hypertensive rat (SHR), systemic vasculature
T2 sequence (P25095 1-359): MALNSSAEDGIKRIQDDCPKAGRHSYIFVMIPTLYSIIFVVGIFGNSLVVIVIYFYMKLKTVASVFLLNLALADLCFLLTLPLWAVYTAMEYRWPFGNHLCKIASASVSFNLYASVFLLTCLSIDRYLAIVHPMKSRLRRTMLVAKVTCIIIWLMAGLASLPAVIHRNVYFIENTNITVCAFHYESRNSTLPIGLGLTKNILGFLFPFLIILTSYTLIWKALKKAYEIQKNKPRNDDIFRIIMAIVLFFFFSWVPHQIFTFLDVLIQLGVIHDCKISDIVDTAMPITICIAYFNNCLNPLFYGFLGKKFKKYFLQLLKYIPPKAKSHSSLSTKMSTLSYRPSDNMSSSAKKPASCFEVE
Procedure: (§1) This in vivo experiment was conducted to characterize the effects of the Example 79 conjugate on spontaneously hypertensive rats (SHR) by acute administration i.v. and by chronic administration i.v. The […] compound or saline vehicle was infused continuously for four days in SHR. Mean arterial pressure was measured (Gould Chart Recorder, model 3800; Statham P23 Db pressure transducer) via an indwelling femoral artery catheter between 10:00 a.m. and 2:00 P.M. each day. The Example 79 conjugate (10 mg/hr) or saline was infused via a jugular vein catheter with a Harvard infusion pump. […] A test was conducted to determine whether the Example 79 conjugate would antagonize non-renal, vascular angiotensin II receptors. In this test AII was administered by bolus injection (100 ng/kg) to the SHR rats (described above) on the control day and on days 1, 3 and 4 during conjugate infusion.

[3] = system: spontaneously hypertensive rats (SHR); experiment: Assay D: In Vivo Effects of Chronic Infusion of Conjugate (mean arterial pressure, heart rate); design: species or system rat
Procedure: Assay D: In Vivo Effects of Chronic Infusion of Conjugate of the Invention
as §1

## CCCCc1nc(-c2ccccc2)n(Cc2ccc(-c3ccccc3-c3nnn[nH]3)cc2)n1 (single isomer, unassigned) [Example 22, 5-[4′-[(3-butyl-5-phenyl-1H-1,2,4-triazol-1-yl)methyl](1,1′-biphenyl)-2-yl]-1H-tetrazole]
Rabbit aortic rings
  Assay B pA2: 6.46
[1]
  IC50: 460 nM
other
  melting point: 205 °C (dec.)

## CCCCc1nc(CCc2ccccc2)nn1Cc1ccc(-c2ccccc2-c2nnn[nH]2)cc1 (single isomer, unassigned) [Example 26]
Rabbit aortic rings
  Assay B pA2: 9.66
[1]
  IC50: 3.2 nM
other
  melting point: 156 to 157.2 °C

## CCCCc1nc(CCCC)n(Cc2ccc(-c3ccccc3C(=O)NNC(=O)CCC(NC(C)=O)C(=O)O)cc2)n1 (stereo not drawn) [Ex. #18 Conjugate, N-acetylglutamic acid, 5-[[4′-[(3,5-dibutyl-1H-1,2,4-triazol-1-yl)methyl][1,1′-biphenyl]-2-yl]]carbonylhydrazide]
[2]; day 1, ± SD
  AII Pressor Response: 30 ± 6
[2]; day 3
  AII Pressor Response: 29 ± 5
[2]; day 4
  AII Pressor Response: 25 ± 3
[3]; 10 mg/hr i.v. infusion, day 1, control day 183 ± 5, ± SD
  MAP (mean arterial pressure): 159 ± 7 mm Hg
[3]; 10 mg/hr i.v. infusion, day 1, control day 352 ± 9, ± SD
  Heart Rate: 395 ± 21 Beats/min.
[3]; 10 mg/hr i.v. infusion, day 2, control day 183 ± 5
  MAP (mean arterial pressure): 155 ± 4 mm Hg
[3]; 10 mg/hr i.v. infusion, day 2, control day 352 ± 9
  Heart Rate: 352 ± 12 Beats/min.
[3]; 10 mg/hr i.v. infusion, day 3, control day 183 ± 5
  MAP (mean arterial pressure): 154 ± 6 mm Hg
[3]; 10 mg/hr i.v. infusion, day 3, control day 352 ± 9
  Heart Rate: 344 ± 22 Beats/min.
[3]; 10 mg/hr i.v. infusion, day 4, control day 183 ± 5
  MAP (mean arterial pressure): 166 ± 9 mm Hg
[3]; 10 mg/hr i.v. infusion, day 4, control day 352 ± 9
  Heart Rate: 374 ± 20 Beats/min.

## CCCCc1nc(CCCC)n(Cc2ccc(-c3ccccc3C(=O)NNC(=O)CCC(NC(C)=O)C(=O)O)cc2)n1 (stereo not drawn) [Example 79 conjugate, N-acetylglutamic acid, 5-[[4′-[(3,5-dibutyl-1H-1,2,4-triazol-1-yl)methyl][1,1′-biphenyl]-2-yl]]carbonylhydrazide]
[2]; AII bolus 100 ng/kg on control day and days 1, 3 and 4 of infusion
  systemic angiotensin II receptor antagonism: No evidence for systemic angiotensin II receptor antagonism was observed
[3]; 10 mg/hr infused for four days
  mean arterial pressure compared to saline vehicle control: lowered mean arterial pressure
[3]; day 1 of conjugate infusion
  tachycardia: Tachycardia was observed on day 1
[3]; days 2 to 4 of conjugate infusion
  Heart Rate: heart rate was returned to control level during the next three days

Reference: US7132437B2, “Renal-selective biphenylalkyl 1H-substituted-1,2,4-triazole angiotensin II antagonists for treatment of hypertension” (G.D. Searle, priority 1990, dated 2006)
